Measured values from patent US20020137929A1, “1 - (3-heterocyclylphenyl) isothiourea, -isourea, -guanidine and -amidine herbicidal agents” (Intellectual Property Department, BASF Aktiengesellschaft, priority 1998, published 2002).

Key:
GALAP (Galium) = test: Postemergence herbicidal evaluation; type: in vivo, Galium aparine; conditions: postemergence
Method in brief: (§1)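 Seedlings grown about two weeks were sprayed at 40 psi with compound dispersed in 50/50 acetone/water plus 0.5% TWEEN 20, at about 0.0156 to 0.500 kg/ha. Plants were kept in the greenhouse and scored 4–5 weeks later on a 0–9 visual scale against untreated controls.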

ORYSAT (Rice, Tebonnet) [1] = test: Preemergence herbicidal evaluation; type: in vivo, Oryza sativa, (L.) Tebonnet; conditions: rated 4-5 weeks after treatment
Method in brief: (§2)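 Steps: mix seeds into potting soil; plant atop ~1 inch soil; spray compound in aqueous acetone (~0.0156-0.500 kg/ha equivalent); maintain in greenhouse with watering; rate visually 0-9 versus control at 4-5 weeks.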

ZEAMX (Corn, Field) = test: Postemergence herbicidal evaluation; type: in vivo, Zea mays; conditions: postemergence
Method in brief: as §1

AMBEL (Ragweed, Common) = test: Preemergence herbicidal evaluation; type: in vivo, Ambrosia artemisifolia; conditions: rated 4-5 weeks after treatment
Method in brief: as §2

ORYSAT (Rice, Tebonnet) [2] = test: Postemergence herbicidal evaluation; type: in vivo, Oryza sativa, (L.) Tebonnet; conditions: postemergence
Method in brief: as §1

CYPSE (Flatsedge) [3] = test: Preemergence weed control under flooded paddy conditions; type: in vivo, Cyperus serotinus; conditions: rated 3-4 weeks after treatment
Method in brief: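 Values are visual 0-9 scores against a control for a preemergence application into paddy flood water at about 0.0313 to 0.500 kg/ha. Greenhouse duration was three to four weeks.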

[4] = system: SAGPY (Arrowhead (Pygmaea)); test: Postemergence weed control under flooded paddy conditions; type: in vivo, Sagittaria pygmaea; conditions: postemergence weeds, rated 3 to 4 weeks after treatment
Method in brief: (§3)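 Injury ratings (0–9 scale covering stand, vigor, malformation, size, chlorosis and overall appearance versus control) were made three to four weeks after treatment. Test material, about 0.0313 to 0.500 kg/ha a.i. in 50/50 v/v aqueous/acetone, was added to flood water 1.5 to 3 cm deep over 3 to 5 cm weeds and 1.5 to 2.5 leaf rice.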

[5] = system: GLXMAW (Soybean, Williams); test: Preemergence herbicidal evaluation; type: in vivo, Glycine max, (L.) Merr. cv Williams; conditions: rated 4-5 weeks after treatment
Method in brief: as §2

CASOB (Sicklepod) = test: Postemergence herbicidal evaluation; type: in vivo, Cassia obtusifolia; conditions: postemergence
Method in brief: as §1

SETVI (Foxtail, Green) = test: Preemergence herbicidal evaluation; type: in vivo, Setaria viridis; conditions: rated 4-5 weeks after treatment
Method in brief: as §2

[6] = system: CHEAL (Lambsquarters, Common); test: Postemergence herbicidal evaluation; type: in vivo, Chenopodium album; conditions: postemergence
Method in brief: as §1

CYPIR (Rice Flatsedge) = test: Postemergence weed control under flooded paddy conditions; type: in vivo, Cyperus iria; conditions: postemergence weeds, rated 3 to 4 weeks after treatment
Method in brief: as §3

CYPSE (Flatsedge) [7] = test: as above; type: in vivo, Cyperus serotinus; conditions: postemergence weeds, rated 3 to 4 weeks after treatment
Method in brief: as §3

SMILES: Cn1c(C(F)(F)F)cc(=O)n(-c2cc(N=C3SCC(=O)N3[C@H](Cc3ccccc3)C(=O)O)c(Cl)cc2F)c1=O [Compound 69, α-Benzyl-2-{{2-chloro-5-[3,6-dihydro-3-methyl-2,6-dioxo-4-(trifluoromethyl)-1(2H)-pyrimidinyl]-4-fluorophenyl}imino}-4-oxo-3-thiazolidineacetic acid, D-]
- GALAP herbicidal rating (GALAP (Galium); rate 0.0158 kg/ha): 0.0
- GALAP herbicidal rating (GALAP (Galium); rate 0.0315 kg/ha): 1.0
- GALAP herbicidal rating (GALAP (Galium); rate 0.0630 kg/ha): 5.0
- Preemergence herbicidal rating ORYSAT (ORYSAT (Rice, Tebonnet) [1]; rate 0.0156 kg/ha): 0.0
- Preemergence herbicidal rating ORYSAT (ORYSAT (Rice, Tebonnet) [1]; rate 0.0313 kg/ha): 0.0
- Preemergence herbicidal rating ORYSAT (ORYSAT (Rice, Tebonnet) [1]; rate 0.0625 kg/ha): 0.0
- Preemergence herbicidal rating ORYSAT (ORYSAT (Rice, Tebonnet) [1]; rate 0.1250 kg/ha): 1.0
- Preemergence herbicidal rating ORYSAT (ORYSAT (Rice, Tebonnet) [1]; rate 0.2500 kg/ha): 1.0
- ZEAMX herbicidal rating (ZEAMX (Corn, Field); rate 0.0158 kg/ha): 4.5
- ZEAMX herbicidal rating (ZEAMX (Corn, Field); rate 0.0315 kg/ha): 4.5
- ZEAMX herbicidal rating (ZEAMX (Corn, Field); rate 0.0630 kg/ha): 5.5
- Preemergence herbicidal rating AMBEL (AMBEL (Ragweed, Common); rate 0.0156 kg/ha): 0.0
- Preemergence herbicidal rating AMBEL (AMBEL (Ragweed, Common); rate 0.0313 kg/ha): 4.0
- Preemergence herbicidal rating AMBEL (AMBEL (Ragweed, Common); rate 0.0625 kg/ha): 5.0
- Preemergence herbicidal rating AMBEL (AMBEL (Ragweed, Common); rate 0.1250 kg/ha): 9.0
- Preemergence herbicidal rating AMBEL (AMBEL (Ragweed, Common); rate 0.2500 kg/ha): 7.0
- ORYSAT herbicidal rating (ORYSAT (Rice, Tebonnet) [2]; rate 0.0158 kg/ha): 2.5
- ORYSAT herbicidal rating (ORYSAT (Rice, Tebonnet) [2]; rate 0.0315 kg/ha): 3.0
- ORYSAT herbicidal rating (ORYSAT (Rice, Tebonnet) [2]; rate 0.0630 kg/ha): 4.5
- CYPSE herbicidal effect rating (CYPSE (Flatsedge) [3]; 0.0313 kg/ha): 3.0
- CYPSE herbicidal effect rating (CYPSE (Flatsedge) [3]; 0.0625 kg/ha): 3.0
- CYPSE herbicidal effect rating (CYPSE (Flatsedge) [3]; 0.1250 kg/ha): 9.0
- CYPSE herbicidal effect rating (CYPSE (Flatsedge) [3]; 0.2500 kg/ha): 9.0
- Herbicidal rating SAGPY ([4]; Rate 0.0313 kg/ha): 0.0
- Herbicidal rating SAGPY ([4]; Rate 0.0625 kg/ha): 0.0
- Herbicidal rating SAGPY ([4]; Rate 0.1250 kg/ha): 3.0
- Herbicidal rating SAGPY ([4]; Rate 0.2500 kg/ha): 3.0
- Preemergence herbicidal rating GLXMAW ([5]; rate 0.0156 kg/ha): 1.0
- Preemergence herbicidal rating GLXMAW ([5]; rate 0.0313 kg/ha): 0.0
- Preemergence herbicidal rating GLXMAW ([5]; rate 0.0625 kg/ha): 0.0
- Preemergence herbicidal rating GLXMAW ([5]; rate 0.1250 kg/ha): 1.0
- Preemergence herbicidal rating GLXMAW ([5]; rate 0.2500 kg/ha): 2.0
- CASOB herbicidal rating (CASOB (Sicklepod); rate 0.0158 kg/ha): 1.0
- CASOB herbicidal rating (CASOB (Sicklepod); rate 0.0315 kg/ha): 2.0
- CASOB herbicidal rating (CASOB (Sicklepod); rate 0.0630 kg/ha): 2.0
- Preemergence herbicidal rating SETVI (SETVI (Foxtail, Green); rate 0.0156 kg/ha): 0.0
- Preemergence herbicidal rating SETVI (SETVI (Foxtail, Green); rate 0.0313 kg/ha): 0.0
- Preemergence herbicidal rating SETVI (SETVI (Foxtail, Green); rate 0.0625 kg/ha): 0.0
- Preemergence herbicidal rating SETVI (SETVI (Foxtail, Green); rate 0.1250 kg/ha): 4.0
- Preemergence herbicidal rating SETVI (SETVI (Foxtail, Green); rate 0.2500 kg/ha): 7.0
- CHEAL herbicidal rating ([6]; rate 0.0158 kg/ha): 7.0
- CHEAL herbicidal rating ([6]; rate 0.0315 kg/ha): 9.0
- Herbicidal rating CYPIR (CYPIR (Rice Flatsedge); Rate 0.0313 kg/ha): 3.0
- Herbicidal rating CYPIR (CYPIR (Rice Flatsedge); Rate 0.0625 kg/ha): 3.0
- Herbicidal rating CYPIR (CYPIR (Rice Flatsedge); Rate 0.1250 kg/ha): 3.0
- Herbicidal rating CYPIR (CYPIR (Rice Flatsedge); Rate 0.2500 kg/ha): 3.0
- Herbicidal rating CYPSE (CYPSE (Flatsedge) [7]; Rate 0.0313 kg/ha): 3.0
- Herbicidal rating CYPSE (CYPSE (Flatsedge) [7]; Rate 0.0625 kg/ha): 3.0
- Herbicidal rating CYPSE (CYPSE (Flatsedge) [7]; Rate 0.1250 kg/ha): 9.0
- Herbicidal rating CYPSE (CYPSE (Flatsedge) [7]; Rate 0.2500 kg/ha): 9.0

SMILES: COC(=O)[C@H](Cc1ccccc1)N1C(=O)CS/C1=N/c1cc(-n2c(=O)cc(C(F)(F)F)n(C)c2=O)c(F)cc1Cl [Compound 72, Methyl α-benzyl-2-{{2-chloro-5-[3,6-dihydro-3-methyl-2,6-dioxo-4-(trifluoromethyl)-1(2H)-pyrimidinyl]-4-fluorophenyl]imino}-4-oxo-3-thiazolidineacetate, L-]
- GALAP herbicidal rating (GALAP (Galium); rate 0.0158 kg/ha): 6.0
- GALAP herbicidal rating (GALAP (Galium); rate 0.0315 kg/ha): 7.0
- GALAP herbicidal rating (GALAP (Galium); rate 0.0630 kg/ha): 9.0
- Preemergence herbicidal rating ORYSAT (ORYSAT (Rice, Tebonnet) [1]; rate 0.0156 kg/ha): 0.0
- Preemergence herbicidal rating ORYSAT (ORYSAT (Rice, Tebonnet) [1]; rate 0.0313 kg/ha): 0.0
- Preemergence herbicidal rating ORYSAT (ORYSAT (Rice, Tebonnet) [1]; rate 0.0625 kg/ha): 0.0
- Preemergence herbicidal rating ORYSAT (ORYSAT (Rice, Tebonnet) [1]; rate 0.1250 kg/ha): 1.0
- Preemergence herbicidal rating ORYSAT (ORYSAT (Rice, Tebonnet) [1]; rate 0.2500 kg/ha): 1.0
- ZEAMX herbicidal rating (ZEAMX (Corn, Field); rate 0.0158 kg/ha): 4.0
- ZEAMX herbicidal rating (ZEAMX (Corn, Field); rate 0.0315 kg/ha): 4.5
- ZEAMX herbicidal rating (ZEAMX (Corn, Field); rate 0.0630 kg/ha): 6.5
- Preemergence herbicidal rating AMBEL (AMBEL (Ragweed, Common); rate 0.0156 kg/ha): 0.0
- Preemergence herbicidal rating AMBEL (AMBEL (Ragweed, Common); rate 0.0625 kg/ha): 2.0
- Preemergence herbicidal rating AMBEL (AMBEL (Ragweed, Common); rate 0.1250 kg/ha): 9.0
- Preemergence herbicidal rating AMBEL (AMBEL (Ragweed, Common); rate 0.2500 kg/ha): 9.0
- ORYSAT herbicidal rating (ORYSAT (Rice, Tebonnet) [2]; rate 0.0158 kg/ha): 3.5
- ORYSAT herbicidal rating (ORYSAT (Rice, Tebonnet) [2]; rate 0.0315 kg/ha): 3.5
- ORYSAT herbicidal rating (ORYSAT (Rice, Tebonnet) [2]; rate 0.0630 kg/ha): 4.5
- CYPSE herbicidal effect rating (CYPSE (Flatsedge) [3]; 0.0313 kg/ha): 0.0
- CYPSE herbicidal effect rating (CYPSE (Flatsedge) [3]; 0.0625 kg/ha): 0.0
- CYPSE herbicidal effect rating (CYPSE (Flatsedge) [3]; 0.1250 kg/ha): 9.0
- CYPSE herbicidal effect rating (CYPSE (Flatsedge) [3]; 0.2500 kg/ha): 9.0
- Herbicidal rating SAGPY ([4]; Rate 0.0313 kg/ha): 4.0
- Herbicidal rating SAGPY ([4]; Rate 0.0625 kg/ha): 4.0
- Herbicidal rating SAGPY ([4]; Rate 0.1250 kg/ha): 4.0
- Herbicidal rating SAGPY ([4]; Rate 0.2500 kg/ha): 4.0
- Preemergence herbicidal rating GLXMAW ([5]; rate 0.0156 kg/ha): 0.0
- Preemergence herbicidal rating GLXMAW ([5]; rate 0.0313 kg/ha): 0.0
- Preemergence herbicidal rating GLXMAW ([5]; rate 0.0625 kg/ha): 0.0
- Preemergence herbicidal rating GLXMAW ([5]; rate 0.1250 kg/ha): 1.0
- Preemergence herbicidal rating GLXMAW ([5]; rate 0.2500 kg/ha): 3.0
- CASOB herbicidal rating (CASOB (Sicklepod); rate 0.0158 kg/ha): 8.0
- CASOB herbicidal rating (CASOB (Sicklepod); rate 0.0315 kg/ha): 6.0
- CASOB herbicidal rating (CASOB (Sicklepod); rate 0.0630 kg/ha): 7.0
- Preemergence herbicidal rating SETVI (SETVI (Foxtail, Green); rate 0.0156 kg/ha): 0.0
- Preemergence herbicidal rating SETVI (SETVI (Foxtail, Green); rate 0.0313 kg/ha): 0.0
- Preemergence herbicidal rating SETVI (SETVI (Foxtail, Green); rate 0.0625 kg/ha): 0.0
- Preemergence herbicidal rating SETVI (SETVI (Foxtail, Green); rate 0.1250 kg/ha): 9.0
- Preemergence herbicidal rating SETVI (SETVI (Foxtail, Green); rate 0.2500 kg/ha): 9.0
- CHEAL herbicidal rating ([6]; rate 0.0158 kg/ha): 7.0
- CHEAL herbicidal rating ([6]; rate 0.0315 kg/ha): 9.0
- Herbicidal rating CYPIR (CYPIR (Rice Flatsedge); Rate 0.0313 kg/ha): 6.0
- Herbicidal rating CYPIR (CYPIR (Rice Flatsedge); Rate 0.0625 kg/ha): 6.0
- Herbicidal rating CYPIR (CYPIR (Rice Flatsedge); Rate 0.1250 kg/ha): 7.0
- Herbicidal rating CYPIR (CYPIR (Rice Flatsedge); Rate 0.2500 kg/ha): 9.0
- Herbicidal rating CYPSE (CYPSE (Flatsedge) [7]; Rate 0.0313 kg/ha): 0.0
- Herbicidal rating CYPSE (CYPSE (Flatsedge) [7]; Rate 0.0625 kg/ha): 0.0
- Herbicidal rating CYPSE (CYPSE (Flatsedge) [7]; Rate 0.1250 kg/ha): 9.0
- Herbicidal rating CYPSE (CYPSE (Flatsedge) [7]; Rate 0.2500 kg/ha): 9.0
